Tested on: 648629-189-R-J1-PDC spheroids with HUVEC/MSC, viability
Experiment: Anticancer human tumor 648629-189-R-J1-PDC patient-derived bladder carcinoma cell line growth inhibition [PI3K]
Details: for IC50: curve of first compound; for viability, T/C: stronger effect = lower value; active = viability on the fitted dose curve at most 10% of control; inactive = the rest
Outline: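 We assembled tumor spheroids that included a stromal compartment of HUVEC and MSCs, then exposed them to targeted agents alone and together with PI3K pathway inhibitors. Concentration series descended by half-log from clinically achievable Cmax levels. Viability served as the endpoint.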

[1] = second compound 0.00316 µM, first compound 0.0316 µM
[2] = second compound 0.00316 µM, first compound 0.1 µM
[3] = second compound 0.00316 µM, first compound 0.316 µM
[4] = second compound 0.00316 µM, first compound 1 µM
[5] = second compound 0.00316 µM, first compound 3.16 µM
[6] = second compound 0.00316 µM, first compound 10 µM
[7] = second compound 0.01 µM, first compound 0.0316 µM
[8] = second compound 0.01 µM, first compound 0.1 µM
[9] = second compound 0.01 µM, first compound 0.316 µM
[10] = second compound 0.01 µM, first compound 1 µM
[11] = second compound 0.01 µM, first compound 3.16 µM
[12] = second compound 0.01 µM, first compound 10 µM
[13] = second compound 0.0316 µM, first compound 0.0316 µM
[14] = second compound 0.0316 µM, first compound 0.1 µM
[15] = second compound 0.0316 µM, first compound 0.316 µM
[16] = second compound 0.0316 µM, first compound 1 µM
[17] = second compound 0.0316 µM, first compound 3.16 µM
[18] = second compound 0.0316 µM, first compound 10 µM
[19] = second compound 0.1 µM, first compound 0.0316 µM
[20] = second compound 0.1 µM, first compound 0.1 µM
[21] = second compound 0.1 µM, first compound 0.316 µM
[22] = second compound 0.1 µM, first compound 1 µM
[23] = second compound 0.1 µM, first compound 3.16 µM
[24] = second compound 0.1 µM, first compound 10 µM
[25] = second compound 0.316 µM, first compound 0.0316 µM
[26] = second compound 0.316 µM, first compound 0.1 µM
[27] = second compound 0.316 µM, first compound 0.316 µM
[28] = second compound 0.316 µM, first compound 1 µM
[29] = second compound 0.316 µM, first compound 3.16 µM
[30] = second compound 0.316 µM, first compound 10 µM
[31] = second compound 1 µM, first compound 0.0316 µM
[32] = second compound 1 µM, first compound 0.1 µM
[33] = second compound 1 µM, first compound 0.316 µM
[34] = second compound 1 µM, first compound 1 µM
[35] = second compound 1 µM, first compound 3.16 µM
[36] = second compound 1 µM, first compound 10 µM
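Also: spheroids exposed to agents for seven days before reading.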
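For viability, T/C in this document: percent of vehicle control luminescence where 100% = DMSO treated spheroids.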

C#Cc1c(F)ccc2cc(O)cc(-c3ncc4c(N5CC6CCC(C5)N6)nc(OCC56CCCN5CC(F)C6)nc4c3F)c12 (centres undefined) + COc1c(OCCCN2CCOCC2)ccc2c3n(c(=NC(=O)c4cnc(N)nc4)nc12)CCN3
active: viability, T/C [31] 3.22% | viability, T/C [32] 2.48% | viability, T/C [33] 2.94% | viability, T/C [34] 3.35% | viability, T/C [35] 3.07% | viability, T/C [36] 0.58%
> 10 µM: IC50 (second compound 0.00316 µM) | IC50 (second compound 0.01 µM) | IC50 (second compound 0.0316 µM) | IC50 (second compound 0.1 µM)
inactive: viability, T/C [1] 107% | viability, T/C [2] 100% | viability, T/C [3] 96.5% | viability, T/C [4] 112% | viability, T/C [5] 105% | viability, T/C [6] 94.6% | viability, T/C [7] 112% | viability, T/C [8] 104% | viability, T/C [9] 103% | viability, T/C [10] 113% | viability, T/C [11] 102% | viability, T/C [12] 103% | viability, T/C [13] 89.4% | viability, T/C [14] 91.2% | viability, T/C [15] 85.9% | viability, T/C [16] 92.2% | viability, T/C [17] 79.7% | viability, T/C [18] 91.5% | viability, T/C [19] 67.2% | viability, T/C [20] 61.3% | viability, T/C [21] 58.2% | viability, T/C [22] 60.6% | viability, T/C [23] 65.1% | viability, T/C [24] 57.5% | viability, T/C [25] 24.3% | viability, T/C [26] 21.2% | viability, T/C [27] 18.3% | viability, T/C [28] 19.8% | viability, T/C [29] 17.9% | viability, T/C [30] 5.74%
< 0.0316 µM: IC50 (second compound 0.316 µM) | IC50 (second compound 1 µM)

CC(Cn1ccc(-c2ccc(C#N)c(Cl)c2)n1)NC(=O)c1cc(C(C)O)[nH]n1 (centres undefined) + COc1c(OCCCN2CCOCC2)ccc2c3n(c(=NC(=O)c4cnc(N)nc4)nc12)CCN3
> 10 µM: IC50 (second compound 0.00316 µM) | IC50 (second compound 0.01 µM) | IC50 (second compound 0.0316 µM) | IC50 (second compound 0.1 µM)
< 0.0316 µM: IC50 (second compound 0.316 µM) | IC50 (second compound 1 µM)
active: viability, T/C [31] 3.56% | viability, T/C [32] 3.29% | viability, T/C [33] 3.07% | viability, T/C [34] 3.97% | viability, T/C [35] 4.94% | viability, T/C [36] 2.75%
inactive: viability, T/C [1] 94.9% | viability, T/C [2] 92.4% | viability, T/C [3] 97.9% | viability, T/C [4] 96.4% | viability, T/C [5] 83.8% | viability, T/C [6] 73.9% | viability, T/C [7] 100% | viability, T/C [8] 105% | viability, T/C [9] 102% | viability, T/C [10] 92.7% | viability, T/C [11] 89.1% | viability, T/C [12] 74.3% | viability, T/C [13] 96.5% | viability, T/C [14] 93.5% | viability, T/C [15] 95.8% | viability, T/C [16] 90.4% | viability, T/C [17] 86.5% | viability, T/C [18] 70.8% | viability, T/C [19] 65.9% | viability, T/C [20] 64.1% | viability, T/C [21] 77.5% | viability, T/C [22] 65.5% | viability, T/C [23] 64% | viability, T/C [24] 61.5% | viability, T/C [25] 23% | viability, T/C [26] 18.7% | viability, T/C [27] 22.9% | viability, T/C [28] 23.2% | viability, T/C [29] 26.4% | viability, T/C [30] 21.3%

Source: PubChem BioAssay AID1963974 (Molecular Pharmacology Branch, DTP, NCI, 2024)
